Activity calls are given as the source filed them.
Columns and labels:
[1] = target: Nucleotide-binding oligomerization domain-containing protein 1 (Homo sapiens, UniProt Q9Y239); test: blockers of NOD1 pathway activity – revised, SAR follow-up (AID 2333); type: functional
[2] = target: T1, Streptokinase A (Streptococcus pyogenes serotype M1, UniProt P10520); test: viability-normalized secreted streptokinase activity reduction – plasminogen activation absorbance, OD405, dose response (AID 1914); type: functional, Streptococcus pyogenes M1 GAS;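 further: secreted streptokinase activity via plasminogen activation per viability signal from cell pellet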
T1 sequence (P10520 whole entry): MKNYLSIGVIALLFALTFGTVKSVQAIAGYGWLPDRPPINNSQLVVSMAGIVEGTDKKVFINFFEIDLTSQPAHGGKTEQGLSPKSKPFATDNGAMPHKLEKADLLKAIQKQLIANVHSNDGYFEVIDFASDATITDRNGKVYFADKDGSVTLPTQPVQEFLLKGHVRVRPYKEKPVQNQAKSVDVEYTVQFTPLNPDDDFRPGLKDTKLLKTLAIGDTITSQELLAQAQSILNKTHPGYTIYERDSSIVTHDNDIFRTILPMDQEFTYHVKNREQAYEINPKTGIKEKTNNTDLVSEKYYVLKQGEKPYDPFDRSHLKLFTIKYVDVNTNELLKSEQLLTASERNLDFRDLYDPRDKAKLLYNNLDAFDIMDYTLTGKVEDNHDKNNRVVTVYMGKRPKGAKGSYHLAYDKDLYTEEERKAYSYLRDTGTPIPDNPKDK

[3] = fluconazole-exposed Candida albicans growth modulators – fluorescence, retest, confirmation (AID 2467); type: functional, cell-based
[4] = target: T2, Corticotropin-releasing factor receptor 2/Corticotropin-releasing factor-binding protein (Homo sapiens, UniProt P24387+Q13324); test: Dose Response confirmation of uHTS hits for small molecule antagonists of the CRF-binding protein and CRF-R2 receptor complex.; type: functional; details: read-out: IC50_Mean
T2 sequence (Q13324 whole entry): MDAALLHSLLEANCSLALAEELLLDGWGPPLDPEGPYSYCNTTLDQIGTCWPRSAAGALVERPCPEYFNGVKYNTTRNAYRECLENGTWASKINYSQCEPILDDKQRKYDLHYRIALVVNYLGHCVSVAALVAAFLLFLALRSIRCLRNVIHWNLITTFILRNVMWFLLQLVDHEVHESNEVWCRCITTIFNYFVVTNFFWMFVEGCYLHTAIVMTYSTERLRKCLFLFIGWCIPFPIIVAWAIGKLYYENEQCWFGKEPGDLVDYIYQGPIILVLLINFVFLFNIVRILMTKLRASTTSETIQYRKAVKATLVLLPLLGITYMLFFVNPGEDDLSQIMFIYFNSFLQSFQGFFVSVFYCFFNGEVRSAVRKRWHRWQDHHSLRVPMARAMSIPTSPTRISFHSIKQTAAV
T2 sequence (P24387 whole entry): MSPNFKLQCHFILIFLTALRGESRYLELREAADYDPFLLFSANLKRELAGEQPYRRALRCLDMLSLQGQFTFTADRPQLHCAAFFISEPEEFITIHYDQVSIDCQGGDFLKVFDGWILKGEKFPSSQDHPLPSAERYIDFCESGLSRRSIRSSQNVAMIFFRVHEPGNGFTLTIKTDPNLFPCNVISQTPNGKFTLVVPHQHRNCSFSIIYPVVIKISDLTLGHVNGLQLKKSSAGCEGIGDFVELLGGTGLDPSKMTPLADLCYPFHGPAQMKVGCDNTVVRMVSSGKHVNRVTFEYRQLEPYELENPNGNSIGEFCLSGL

[5] = NIH-3T3 fibroblast cytotoxicity, dose response, cytotoxicity control, cell-based, fluorescence, Alamar Blue, secondary assay (AID 2327); type: functional;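 further: NIH-3T3 mouse fibroblasts cultured with fluconazole at 8 µg/mL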
[6] = system: HEK293; test: NOD2 signaling inhibitors in MDP-stimulated cells, cell-based, uHTS, luminescence (AID 2001); type: functional; details: Homo sapiens
[7] = system: Streptococcus; test: GAS UMAA2166 growth inhibition – luminescence, BacTiterGlo, counter-screen for streptokinase expression inhibitor project, dose response (AID 1915); type: functional, organism-based;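 further: potency for reduction of bacterial viability or growth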
[8] = target: Serine/threonine-protein phosphatase (Candida dubliniensis (strain CD36 / CBS 7987 / NCPF 3949 / NRRLY-17841) (Yeast), UniProt B9W6M3); test: blockers of CaCl2-induced CDRE-lacZ signaling – S. cerevisiae, luminescence, secondary, dose response (AID 2388); type: functional, cell-based;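 further: yeast reporter cells carrying a calcineurin-responsive lacZ construct stimulated with calcium chloride; luminescent beta-galactosidase reporter signal in whole cells rather than isolated phosphatase activity; potency for inhibition where a drop in reporter signal means calcineurin blockade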
[9] = blockers of CRF-binding protein–CRF-R2 complex – cell-based, uHTS hits, 384-well, dose response (AID 651639); type: functional, Homo sapiens; details: read-out: IC50_Mean
[10] = target: T2, Corticotropin-releasing factor receptor 2/Corticotropin-releasing factor-binding protein; test: activators of CRF receptor 2 with binding protein – uHTS hits, confirmation (AID 602473); type: functional; details: read-out: EC50_Mean
[11] = target: ATP-dependent molecular chaperone HSP82 (Candida albicans (strain WO-1) (Yeast), UniProt C4YTQ8); test: steroid-induced GRE reporter decrease in yeast – S. cerevisiae, luminescence, Hsp90 inhibitor project, dose response (AID 2400); type: functional, cell-based;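 further: beta-galactosidase luminescence from glucocorticoid response element reporter as proxy for Hsp90 function; inhibitor potency where signal loss means Hsp90 inhibition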
ATP-dependent molecular chaperone HSP82, sequence (C4YTQ8 whole entry, the tested form may be a part): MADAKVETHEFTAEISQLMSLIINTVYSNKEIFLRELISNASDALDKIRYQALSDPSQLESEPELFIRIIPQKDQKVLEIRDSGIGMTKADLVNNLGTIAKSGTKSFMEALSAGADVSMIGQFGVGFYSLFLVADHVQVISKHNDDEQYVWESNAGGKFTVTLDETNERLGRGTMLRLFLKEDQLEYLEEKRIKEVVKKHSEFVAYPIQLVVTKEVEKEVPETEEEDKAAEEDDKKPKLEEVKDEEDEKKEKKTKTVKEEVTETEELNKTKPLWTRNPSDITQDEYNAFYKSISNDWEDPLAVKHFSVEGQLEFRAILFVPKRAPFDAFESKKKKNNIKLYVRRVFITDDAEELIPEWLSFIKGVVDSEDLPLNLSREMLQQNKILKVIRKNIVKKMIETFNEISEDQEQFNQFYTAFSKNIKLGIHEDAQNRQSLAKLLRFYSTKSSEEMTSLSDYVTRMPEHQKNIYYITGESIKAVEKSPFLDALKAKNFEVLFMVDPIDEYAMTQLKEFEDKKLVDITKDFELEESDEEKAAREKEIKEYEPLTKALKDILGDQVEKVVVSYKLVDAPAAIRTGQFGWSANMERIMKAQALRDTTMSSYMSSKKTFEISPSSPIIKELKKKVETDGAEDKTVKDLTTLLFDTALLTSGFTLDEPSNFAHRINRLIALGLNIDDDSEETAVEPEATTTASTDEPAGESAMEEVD

[12] = target: Nucleotide-binding oligomerization domain-containing protein 2 (Homo sapiens, UniProt Q9HC29); test: PubChem AID 2334; type: functional
Nucleotide-binding oligomerization domain-containing protein 2, sequence (Q9HC29 whole entry, the tested form may be a part): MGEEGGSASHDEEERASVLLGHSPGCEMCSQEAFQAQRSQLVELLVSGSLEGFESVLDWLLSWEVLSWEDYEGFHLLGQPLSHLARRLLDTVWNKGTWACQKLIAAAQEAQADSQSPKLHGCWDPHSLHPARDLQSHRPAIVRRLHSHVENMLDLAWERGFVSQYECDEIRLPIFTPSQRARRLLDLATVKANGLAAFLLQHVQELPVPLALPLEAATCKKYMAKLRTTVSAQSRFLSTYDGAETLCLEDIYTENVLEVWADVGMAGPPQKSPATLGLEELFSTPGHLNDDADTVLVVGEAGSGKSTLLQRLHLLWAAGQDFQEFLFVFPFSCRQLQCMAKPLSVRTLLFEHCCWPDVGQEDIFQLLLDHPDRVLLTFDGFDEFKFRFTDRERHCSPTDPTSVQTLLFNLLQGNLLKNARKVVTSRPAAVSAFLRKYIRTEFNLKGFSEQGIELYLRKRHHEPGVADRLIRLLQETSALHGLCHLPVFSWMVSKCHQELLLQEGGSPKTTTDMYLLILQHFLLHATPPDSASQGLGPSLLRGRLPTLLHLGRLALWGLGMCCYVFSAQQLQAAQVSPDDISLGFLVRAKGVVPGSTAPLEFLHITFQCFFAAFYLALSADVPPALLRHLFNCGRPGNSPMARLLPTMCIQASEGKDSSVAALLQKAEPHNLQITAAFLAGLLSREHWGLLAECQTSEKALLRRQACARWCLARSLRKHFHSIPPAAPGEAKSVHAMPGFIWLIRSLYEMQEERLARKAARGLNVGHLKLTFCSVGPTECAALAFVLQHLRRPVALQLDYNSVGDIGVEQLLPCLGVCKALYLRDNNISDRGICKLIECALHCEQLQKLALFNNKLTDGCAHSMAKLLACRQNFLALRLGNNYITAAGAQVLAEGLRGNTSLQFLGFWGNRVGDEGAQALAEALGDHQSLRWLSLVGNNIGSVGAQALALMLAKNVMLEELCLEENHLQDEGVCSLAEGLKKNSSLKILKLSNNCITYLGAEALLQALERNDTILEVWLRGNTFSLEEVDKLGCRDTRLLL

[13] = system: Streptococcus sp. 'group A'; test: Streptococcus pyogenes SK(-)GAS viability under kanamycin – luminescence, BacTiterGlo, confirmation, counter-screen for streptokinase expression inhibitor project, dose response (AID 1900); type: functional, organism-based
[14] = system: HEK293; test: cells; details: Homo sapiens
[15] = target: Tumor necrosis factor (Homo sapiens, UniProt P01375); test: analog potency on TNFa NF-kB signaling – cell-based, revised, SAR follow-up (AID 2337); type: functional
Tumor necrosis factor, sequence (P01375 whole entry): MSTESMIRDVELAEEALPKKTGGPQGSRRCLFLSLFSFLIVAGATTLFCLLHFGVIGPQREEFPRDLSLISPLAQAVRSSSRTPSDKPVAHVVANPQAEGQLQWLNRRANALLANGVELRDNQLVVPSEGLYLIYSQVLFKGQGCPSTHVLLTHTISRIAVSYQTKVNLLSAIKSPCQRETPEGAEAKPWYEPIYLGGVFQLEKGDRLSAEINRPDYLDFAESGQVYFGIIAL

[16] = system: HEK293; test: inhibition of NOD1-driven NF-kB reporter – cell-based, luminescence, uHTS, primary screen (AID 1578); type: functional; details: Homo sapiens
[17] = system: HEK293; test: cells; type: functional, cell-based; details: Homo sapiens
[18] = system: HEK293; test: cells; type: functional, cell-based; details: Homo sapiens; remark: listed apart in the source
[19] = target: T3, Carboxy-terminal domain RNA polymerase II polypeptide A small phosphatase 1 (Homo sapiens, UniProt Q9GZU7); test: CTDSP1 inhibitors, concentration-response, biochemical, absorbance readout, ultra-high-throughput screen actives (AID 540297); type: functional
T3 sequence (Q9GZU7 whole entry): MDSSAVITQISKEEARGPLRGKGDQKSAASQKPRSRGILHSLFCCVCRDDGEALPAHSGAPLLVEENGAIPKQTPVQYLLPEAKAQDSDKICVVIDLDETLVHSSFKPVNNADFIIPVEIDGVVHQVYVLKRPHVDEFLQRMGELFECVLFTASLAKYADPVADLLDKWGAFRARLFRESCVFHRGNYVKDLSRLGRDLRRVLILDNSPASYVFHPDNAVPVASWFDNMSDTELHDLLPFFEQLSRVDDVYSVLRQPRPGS

[20] = target: Beta-2 adrenergic receptor (Homo sapiens, UniProt P07550); test: ADRB2 activation measured by internalization – cell-based, FAP fluorogen, flow cytometry, cherry pick 1, dose response (AID 588763); type: functional
Beta-2 adrenergic receptor, sequence (P07550 whole entry): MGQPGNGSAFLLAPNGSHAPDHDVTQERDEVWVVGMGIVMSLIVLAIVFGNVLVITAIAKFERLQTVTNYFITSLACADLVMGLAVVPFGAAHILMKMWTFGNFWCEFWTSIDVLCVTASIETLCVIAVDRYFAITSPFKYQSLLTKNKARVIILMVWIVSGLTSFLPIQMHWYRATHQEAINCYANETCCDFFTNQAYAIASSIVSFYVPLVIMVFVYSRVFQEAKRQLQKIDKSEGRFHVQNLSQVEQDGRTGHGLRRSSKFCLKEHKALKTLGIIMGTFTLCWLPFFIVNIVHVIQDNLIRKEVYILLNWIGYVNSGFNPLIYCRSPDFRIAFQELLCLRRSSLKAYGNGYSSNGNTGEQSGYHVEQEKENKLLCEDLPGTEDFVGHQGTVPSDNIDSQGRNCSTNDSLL

[21] = system: MDCK; test: antiviral activity against H1N1 influenza, dose response, cell-based, strain KY136 (AID 540257); type: functional; details: Canis lupus familiaris
[22] = system: Vero; test: Vero E6 cell cytotoxicity, dose response, cytotoxicity control (AID 540298); type: functional; details: Chlorocebus sabaeus
[23] = system: MDCK; test: MDCK cell cytotoxicity, dose response, cytotoxicity control (AID 540296); type: functional; details: Canis lupus familiaris
[24] = target: T4, Endoribonuclease toxin MazF (Escherichia coli K-12, UniProt P0AE70); test: substrate-only fluorescence increase artefacts – biochemical, single-stranded RNase substrate, counter-screen for MazEF activator project, dose response (AID 588502); type: functional
T4 sequence (P0AE70 whole entry): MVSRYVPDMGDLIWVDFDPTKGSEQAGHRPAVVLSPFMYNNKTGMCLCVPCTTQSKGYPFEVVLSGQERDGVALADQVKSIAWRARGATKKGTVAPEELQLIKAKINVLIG

[25] = target: T4, Endoribonuclease toxin MazF; test: activation of MazEF endoribonuclease cleavage – biochemical, fluorescence, single-stranded RNA substrate, uHTS hits, dose response (AID 588481); type: functional
[26] = target: Phospholipase D2 (Homo sapiens, UniProt O14939); test: cellular phospholipase D2 inhibition IC50 – cell-based, dose response (AID 602147); type: functional;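 further: cellular assay in HEK293 cells overexpressing GFP-tagged PLD2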
[27] = target: Phospholipase D1 (Homo sapiens, UniProt Q13393); test: cellular phospholipase D1 inhibition IC50 – cell-based, dose response (AID 602151); type: functional;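 further: cellular PLD1 assay in Calu-1 cells stimulated with PMA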
Phospholipase D1, sequence (Q13393 whole entry): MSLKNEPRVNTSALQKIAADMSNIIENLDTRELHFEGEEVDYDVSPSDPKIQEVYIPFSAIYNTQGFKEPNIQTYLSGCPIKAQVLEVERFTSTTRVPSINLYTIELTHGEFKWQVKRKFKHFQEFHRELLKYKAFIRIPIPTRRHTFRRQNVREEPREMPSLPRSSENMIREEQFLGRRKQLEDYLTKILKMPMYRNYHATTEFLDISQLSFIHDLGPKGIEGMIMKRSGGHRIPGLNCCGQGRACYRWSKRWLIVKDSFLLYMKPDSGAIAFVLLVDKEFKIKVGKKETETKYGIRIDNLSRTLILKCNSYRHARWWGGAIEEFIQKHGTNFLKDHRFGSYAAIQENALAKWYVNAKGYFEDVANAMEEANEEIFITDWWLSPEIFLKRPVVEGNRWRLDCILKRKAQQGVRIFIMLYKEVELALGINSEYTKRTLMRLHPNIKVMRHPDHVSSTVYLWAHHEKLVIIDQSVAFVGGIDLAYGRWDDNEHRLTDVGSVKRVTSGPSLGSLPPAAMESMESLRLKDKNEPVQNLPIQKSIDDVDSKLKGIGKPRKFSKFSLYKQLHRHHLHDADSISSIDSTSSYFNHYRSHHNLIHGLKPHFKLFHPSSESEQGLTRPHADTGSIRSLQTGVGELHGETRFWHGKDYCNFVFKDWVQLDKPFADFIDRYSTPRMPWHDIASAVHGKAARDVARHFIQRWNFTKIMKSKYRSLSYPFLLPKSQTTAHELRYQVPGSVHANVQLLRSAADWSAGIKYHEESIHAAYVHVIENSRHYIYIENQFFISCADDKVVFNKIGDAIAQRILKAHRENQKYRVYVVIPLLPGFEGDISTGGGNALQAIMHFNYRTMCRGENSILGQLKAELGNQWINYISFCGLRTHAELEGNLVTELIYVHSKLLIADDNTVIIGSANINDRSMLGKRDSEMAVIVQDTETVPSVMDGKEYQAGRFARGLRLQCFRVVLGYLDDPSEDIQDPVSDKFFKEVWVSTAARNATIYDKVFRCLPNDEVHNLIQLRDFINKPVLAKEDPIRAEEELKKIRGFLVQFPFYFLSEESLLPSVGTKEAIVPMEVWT

[28] = system: NIH3T3; test: mammalian cell viability counter-check – Alamar Blue, fluconazole, dry powder, cytotoxicity control for antifungal drug resistance project, dose response (AID 488809); type: functional, cell-based; details: Mus musculus
[29] = suppression of NO production in INS-1E cells – cell-based, Griess absorbance, dry powder, set 3, dose response (AID 488870); type: functional; details: Rattus norvegicus
[30] = system: INS1; test: suppression of NO production in INS-1E cells – cell-based, Griess absorbance, dry powder, set 2, dose response (AID 488868); type: functional; details: Rattus norvegicus
[31] = system: INS1; test: beta-cell survival under cytokine stress – INS-1E, ATP luminescence, dry powder, dose response (AID 488844); type: functional, cell-based; details: Rattus norvegicus
[32] = system: INS1; test: INS-1E mitochondrial potential rescue under cytokines – cell-based, JC-1 fluorescence ratio, dry powder, dose response (AID 488931); type: functional; details: Rattus norvegicus
[33] = target: Dual specificity tyrosine-phosphorylation-regulated kinase 1A (Rattus norvegicus, UniProt Q63470); type: biochemical, Homo sapiens
[34] = DRD fibroblast viability loss – cell-based, non-viral oncogenic, luminescence, dose response (AID 1934); type: functional; details: Homo sapiens
[35] = target: DNA repair and recombination protein RAD54-like (Homo sapiens, UniProt Q92698); test: RAD54 Holliday junction migration blockers – biochemical, fluorescence, cherry-picked samples, dose series, confirmation (AID 651657); type: functional
DNA repair and recombination protein RAD54-like, sequence (Q92698 whole entry): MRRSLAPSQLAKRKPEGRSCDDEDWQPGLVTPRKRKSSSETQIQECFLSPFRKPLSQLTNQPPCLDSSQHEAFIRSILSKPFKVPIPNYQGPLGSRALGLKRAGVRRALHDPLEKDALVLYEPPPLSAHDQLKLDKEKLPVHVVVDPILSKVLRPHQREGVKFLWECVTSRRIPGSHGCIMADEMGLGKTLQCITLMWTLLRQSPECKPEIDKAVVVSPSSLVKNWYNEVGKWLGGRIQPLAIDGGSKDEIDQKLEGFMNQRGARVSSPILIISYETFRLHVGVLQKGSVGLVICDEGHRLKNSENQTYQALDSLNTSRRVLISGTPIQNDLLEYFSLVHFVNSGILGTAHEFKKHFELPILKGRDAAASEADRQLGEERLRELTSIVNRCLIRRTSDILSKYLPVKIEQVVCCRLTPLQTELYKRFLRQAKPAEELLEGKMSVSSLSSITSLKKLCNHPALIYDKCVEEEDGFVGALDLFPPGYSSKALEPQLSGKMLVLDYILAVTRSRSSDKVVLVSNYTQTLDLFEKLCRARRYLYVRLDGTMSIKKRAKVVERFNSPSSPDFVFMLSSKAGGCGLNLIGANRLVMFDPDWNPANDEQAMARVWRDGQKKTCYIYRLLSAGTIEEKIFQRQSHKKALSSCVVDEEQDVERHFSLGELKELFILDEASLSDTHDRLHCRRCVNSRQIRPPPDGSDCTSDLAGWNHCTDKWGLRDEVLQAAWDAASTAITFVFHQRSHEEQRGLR

[36] = target: DNA repair protein RAD52 homolog (Homo sapiens, UniProt P43351); type: functional, biochemical
DNA repair protein RAD52 homolog, sequence (P43351 whole entry): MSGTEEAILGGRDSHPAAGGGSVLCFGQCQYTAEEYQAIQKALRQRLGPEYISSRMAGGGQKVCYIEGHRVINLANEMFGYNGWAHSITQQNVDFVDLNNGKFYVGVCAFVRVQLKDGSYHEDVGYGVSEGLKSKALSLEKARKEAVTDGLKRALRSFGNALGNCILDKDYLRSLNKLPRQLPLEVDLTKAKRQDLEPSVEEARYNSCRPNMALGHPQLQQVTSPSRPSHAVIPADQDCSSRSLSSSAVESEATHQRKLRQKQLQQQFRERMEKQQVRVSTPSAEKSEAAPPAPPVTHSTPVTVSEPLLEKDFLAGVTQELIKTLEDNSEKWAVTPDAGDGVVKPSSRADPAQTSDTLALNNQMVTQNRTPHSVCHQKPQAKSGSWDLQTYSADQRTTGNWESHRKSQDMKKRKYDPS

[37] = system: BJ; test: growth inhibition of engineered Ras-driven BJ cells – cell-based, alamar blue fluorescence, cherrypicked samples, dose response (AID 2631); type: functional; details: Homo sapiens;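 further: confirmatory dose-response assay in RAS-dependent BJ fibroblasts engineered with TERT, LT and ST, with cytotoxicity read by fluorescence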
[38] = cytotoxicity toward MDA-MB-231 breast cancer cells – cell-based, CellTiter-Glo luminescence, cherry-pick, cytotoxicity control for RAD54 inhibitor project, dose response (AID 651692); type: functional
[39] = system: BJ; test: BJ-TERT fibroblast viability loss – cell-based, RAS-independent, luminescence, dose response (AID 1933); type: functional; details: Homo sapiens
[40] = system: BJ; test: BJ-TERT-LT-ST fibroblast viability loss – cell-based, RAS-independent, luminescence, dose response (AID 1935); type: functional; details: Homo sapiens;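 further: BJ fibroblasts immortalized with TERT plus LT and ST oncogenes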
[41] = system: BJ; test: cells; type: functional, cell-based; details: Homo sapiens
[42] = system: Vero; test: mammalian cell viability reduction – secondary assay, cytotoxicity control for West Nile virus antiviral project, dose response (AID 1650); type: functional; details: Chlorocebus sabaeus

O=[N+]([O-])c1ccc(O)c(Nc2ncnc3ccc(Br)cc23)c1
IC50 [1]: 2.15 µM (active)
EC50 [2]: > 150 µM (not active)
EC50 [3]: 0.429 µM (active)
IC50 [4]: 5.76 µM (active)
EC50 [5]: > 160 µM (inactive)
IC50 [6]: 18.8 µM (inactive)
EC50 [7]: 46.2 µM (active)
EC50 [8]: > 180 µM (inactive)
IC50 [9]: > 20 µM (inactive)
EC50 [10]: 5.78 µM (active)
EC50 [11]: > 160 µM (inactive)
IC50 [12]: 3.53 µM (active)
EC50 [13]: 6.15 µM (active)
IC50 [14]: > 20 µM (inactive)
IC50 [15]: 6.28 µM (active)
EC50 [16]: 2.64 µM (active)
IC50 [17]: > 20 µM (inactive)
IC50 [18]: > 20 µM (inactive)
IC50 [19]: 5.46 µM (active)

COc1ccc(CN2CCC(Oc3ccc(C(=O)N4CCCCC4)cc3)CC2)cc1C
EC50 [20]: 25.3 µM (inactive)

Cc1ccccc1NC(=O)/C(=C/c1ccco1)c1ccccc1
IC50 [21]: 15.4 µM (active)
CC50 [22]: > 40 µM (active)
CC50 [23]: > 40 µM (active)

Cc1sc(NC(=O)CSc2nnc(N)[nH]2)c(C#N)c1C
EC50 [24]: > 99 µM (inactive)
EC50 [25]: > 99 µM (inactive)

O=C(NCCN1CCC(n2c(=O)[nH]c3cc(I)ccc32)CC1)c1ccc(Cl)cc1
IC50 [26]: 0.345 µM (active)
IC50 [27]: 0.005 µM (active)

COc1ccc2c(c1)c1nc3n(c(=O)c1n2CC(=O)N1CCC(Cc2ccccc2)CC1)CCS3
AC50 [28]: 207 µM (active)

COc1cccc(S(=O)(=O)N(C)C[C@@H]2Oc3c(NC(=O)Nc4cccc5ccccc45)cccc3C(=O)N([C@@H](C)CO)C[C@H]2C)c1
AC50 [29]: 29 µM (active)
AC50 [30]: 28.7 µM (active)
AC50 [31]: 77 µM (active)
AC50 [32]: 98.9 µM (active)

Nc1nc(N)c2c(ccc3[nH]ccc32)n1
AC50 [33]: 5.51 µM (active)
EC50 [34]: 14.4 µM (inconclusive)
AC50 [35]: 38.6 µM (active)
AC50 [36]: 12 µM (active)
EC50 [37]: > 133 µM (inactive)
AC50 [38]: 4.07 µM (active)
EC50 [39]: 112 µM (active)
EC50 [40]: > 38 µM (not active)
EC50 [41]: 4.8 µM (inconclusive)
CC50 [42]: 5.14 µM (active)

Reference: ChEMBL document CHEMBL1201862, “PubChem BioAssay data set” (2004)
